# Source: ChEMBL document CHEMBL4831493 (Eur J Med Chem, 2021)
# Legend:
# Acetylcholinesterase [1] = molecular target: Acetylcholinesterase (Homo sapiens, UniProt P22303); assay: Inhibition of human recombinant AChE preincubated for 1 min in presence of DNTB followed by addition of acetylthiocholine iodide substrate and measured after 20 mins by Ellman's method
# Acetylcholinesterase [2] = molecular target: Acetylcholinesterase (Electrophorus electricus, UniProt O42275); assay: Inhibition of electric eel recombinant AChE preincubated for 1 min in presence of DNTB followed by addition of acetylthiocholine iodide substrate and measured after 20 mins by Ellman's method
# [3] = molecular target: Glycogen synthase kinase-3 beta (Homo sapiens, UniProt P49841); assay: Inhibition of human recombinant N-terminal His-tagged GSK3beta expressed in Escherichia coli using RRRPASVPPSPSLS RHS(pS)HQRR as substrate incubated for 30 mins in presence of ATP by Kinase-Glo reagent based luminescence assay
# Sequence of Glycogen synthase kinase-3 beta (P49841 whole entry): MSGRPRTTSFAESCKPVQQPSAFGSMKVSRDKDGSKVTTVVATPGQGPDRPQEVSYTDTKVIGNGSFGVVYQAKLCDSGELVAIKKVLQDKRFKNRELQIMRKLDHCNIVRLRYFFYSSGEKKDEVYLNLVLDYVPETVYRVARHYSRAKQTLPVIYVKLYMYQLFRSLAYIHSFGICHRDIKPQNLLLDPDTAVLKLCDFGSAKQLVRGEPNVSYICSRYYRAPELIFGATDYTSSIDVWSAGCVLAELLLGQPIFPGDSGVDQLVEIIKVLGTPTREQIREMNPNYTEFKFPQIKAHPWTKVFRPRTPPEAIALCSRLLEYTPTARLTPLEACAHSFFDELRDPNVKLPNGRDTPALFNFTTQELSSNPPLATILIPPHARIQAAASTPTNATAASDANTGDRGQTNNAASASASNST
# Sequence of Acetylcholinesterase (Homo sapiens, UniProt P22303) (P22303 whole entry): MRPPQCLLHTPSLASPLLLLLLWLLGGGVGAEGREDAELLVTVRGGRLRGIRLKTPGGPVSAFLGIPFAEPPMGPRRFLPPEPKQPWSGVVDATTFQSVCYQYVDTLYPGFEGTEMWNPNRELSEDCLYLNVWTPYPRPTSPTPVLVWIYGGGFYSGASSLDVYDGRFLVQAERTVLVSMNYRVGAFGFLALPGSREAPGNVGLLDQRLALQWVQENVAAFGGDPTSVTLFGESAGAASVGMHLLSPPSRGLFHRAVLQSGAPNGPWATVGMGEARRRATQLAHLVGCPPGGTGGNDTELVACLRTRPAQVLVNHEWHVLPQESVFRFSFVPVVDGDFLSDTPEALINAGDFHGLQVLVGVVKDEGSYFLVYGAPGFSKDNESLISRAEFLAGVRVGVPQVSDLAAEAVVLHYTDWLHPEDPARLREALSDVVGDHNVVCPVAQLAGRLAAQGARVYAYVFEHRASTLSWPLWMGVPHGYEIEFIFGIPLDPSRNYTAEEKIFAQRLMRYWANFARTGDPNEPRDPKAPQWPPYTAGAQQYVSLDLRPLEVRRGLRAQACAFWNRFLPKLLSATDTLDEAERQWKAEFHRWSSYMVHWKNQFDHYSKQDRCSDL
# Sequence of Acetylcholinesterase (Electrophorus electricus, UniProt O42275) (O42275 whole entry): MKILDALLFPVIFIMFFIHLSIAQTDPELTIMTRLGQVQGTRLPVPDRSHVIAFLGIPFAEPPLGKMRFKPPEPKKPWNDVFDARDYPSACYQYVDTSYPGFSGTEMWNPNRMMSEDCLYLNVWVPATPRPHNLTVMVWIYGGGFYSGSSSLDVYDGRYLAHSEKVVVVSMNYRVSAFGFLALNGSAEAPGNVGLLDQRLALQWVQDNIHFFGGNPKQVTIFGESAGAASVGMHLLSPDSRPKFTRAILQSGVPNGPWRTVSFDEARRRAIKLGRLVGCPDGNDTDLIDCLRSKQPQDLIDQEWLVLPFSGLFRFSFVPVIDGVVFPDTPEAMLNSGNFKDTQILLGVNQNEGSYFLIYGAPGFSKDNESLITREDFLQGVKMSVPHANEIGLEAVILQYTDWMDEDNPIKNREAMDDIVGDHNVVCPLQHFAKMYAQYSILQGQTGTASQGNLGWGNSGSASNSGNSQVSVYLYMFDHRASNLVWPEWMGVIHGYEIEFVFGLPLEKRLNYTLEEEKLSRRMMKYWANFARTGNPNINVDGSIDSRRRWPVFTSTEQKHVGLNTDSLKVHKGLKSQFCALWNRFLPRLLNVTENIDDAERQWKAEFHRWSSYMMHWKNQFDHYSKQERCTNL
SMILES,IC50 (Acetylcholinesterase [1]),IC50 (Acetylcholinesterase [2]),IC50 [3]
O=C(Nc1cncc(OCC2CCN(Cc3ccccc3)CC2)c1)c1ccnc2[nH]ccc12,0.0039 µM,0.0023 µM,0.837 µM
O=C(NCCC1CCN(Cc2cccc(Cl)c2)CC1)c1cncc(NC(=O)c2ccnc(NC(=O)C3CC3)c2)c1,–,–,0.152 µM
COc1cccc(CN2CCC(CNC(=O)c3cncc(NC(=O)c4ccnc(NC(=O)C5CC5)c4)c3)CC2)c1,> 10 µM,8.91 µM,0.126 µM
O=C(Nc1cncc(OCC2CCN(Cc3ccccc3F)CC2)c1)c1ccnc(NC(=O)C2CC2)c1,0.0047 µM,0.0101 µM,0.077 µM
O=C(Nc1cncc(OCC2CCN(Cc3ccccc3Cl)CC2)c1)c1ccnc(NC(=O)C2CC2)c1,0.0816 µM,0.0972 µM,0.079 µM
CC(=O)Nc1cc(C(=O)Nc2cccc(OCC3CCN(Cc4ccc(F)cc4)CC3)c2)ccn1,–,> 10 µM,> 10 µM
O=C(Nc1cncc(C(=O)NC2CCN(Cc3cccc(Cl)c3)CC2)c1)c1ccnc(NC(=O)C2CC2)c1,2.5 µM,0.951 µM,0.063 µM
O=C(NCC1CCN(Cc2ccc(F)c(F)c2)CC1)c1cncc(NC(=O)c2ccnc(NC(=O)C3CC3)c2)c1,3.07 µM,1.05 µM,0.279 µM
O=C(NCC1CCN(Cc2cccc(Cl)c2)CC1)c1cncc(NC(=O)c2ccnc3[nH]ccc23)c1,1.31 µM,0.874 µM,> 10 µM
CC(=O)Nc1cc(C(=O)Nc2cccc(OCC3CCN(Cc4ccccc4)CC3)c2)ccn1,> 10 µM,2.2 µM,> 10 µM
O=C(Nc1cccc(OCC2CCN(Cc3ccc(F)cc3)CC2)c1)c1ccnc(NC(=O)C2CC2)c1,–,> 10 µM,> 10 µM
O=C(NCC1CCN(Cc2cccc(F)c2)CC1)c1cncc(NC(=O)c2ccnc(NC(=O)C3CC3)c2)c1,2.39 µM,1.02 µM,0.097 µM
O=C(NC1CCN(Cc2ccc(F)cc2)CC1)c1cncc(NC(=O)c2ccnc3[nH]ccc23)c1,0.227 µM,0.406 µM,4.93 µM
O=C(NCC1CCN(Cc2ccc(F)cc2)CC1)c1cncc(NC(=O)c2ccnc(NC(=O)C3CC3)c2)c1,3.03 µM,1.16 µM,0.244 µM
Cc1cccc(CN2CCC(CNC(=O)c3cncc(NC(=O)c4ccnc(NC(=O)C5CC5)c4)c3)CC2)c1,6360 µM,4.16 µM,0.198 µM
